Values quoted from earlier work, collected in patent US10500227B2, “Bioactive gas-encapsulated echogenic liposomes and methods for treating cardiovascular disease” (University of Cincinnati, priority 2014, dated 2019).

[N]=O [NO, nitric oxide]
diffusivity (in muscular tissue): roughly 3,300 μm^2 per second | half-life (in the presence of hemoglobin and oxygen in vivo): < 1 s
